Test results as given in US9862676B2, “Hydroxamic acid derivative or salt thereof” (TOYAMA CHEMICAL CO., LTD., priority 2013, dated 2018).
Values after ≈ are worked out from the molar mass of the structure shown.

Key:
Assay type in all cases: cell-based
[1] = Test on inhibition of Vero cell growth (XTT); conditions: African green monkey, Vero cells, 3 days culture, read-out: CC50 (concentration inhibiting 50% of cell growth)
Experimental: Each test compound was dissolved in dimethyl sulfoxide, adjusted to each concentration using E'MEM, and then dispensed at 0.1 mL/well to 96-well microplates. The Vero cell suspension was prepared at 3×10^4 cells/mL using E'MEM supplemented with 20% FBS, inoculated thereto at 0.1 mL/well, and cultured at 37° C. for 3 days under 5% CO2. At the completion of the culture, PBS supplemented with 1 mg/mL 2,3-bis-(2-methoxy-4-nitro-5-sulfophenyl)-5-((phenylamino)carbonyl)-2H-tetrazolium inner salt monosodium salt (XTT) and 25 μM phenazine methosulfate (PMS) was prepared and added thereto at 50 μL/well. Approximately 2 hours later, the absorbance at 450 nm was measured using a microplate reader.

[2] = test system: Pseudomonas aeruginosa ATCC27853 strain; experiment: Antibacterial activity, MIC by broth microdilution (CLSI)
Experimental: (§1) The minimum inhibitory concentration (MIC) was measured according to the CLSI (Clinical and Laboratory Standards Institute) standard method using a broth microdilution method given below. The bacteria used were a Pseudomonas aeruginosa ATCC27853 strain, an Escherichia coli ATCC25922 strain and a Klebsiella pneumoniae ATCC13883 strain. Test bacterial cells of each strain cultured overnight in a Mueller-Hinton agar medium were scraped off and suspended at the McFarland 0.5 standard, and this suspension was diluted 10-fold to prepare an inoculum solution. The inoculum solution (0.005 mL) was inoculated to a cation-adjusted Mueller-Hinton medium containing each test compound and cultured at 35° C. for 16 to 20 hours. The minimum drug concentration at which bacterial growth was not visible to the naked eye was defined as MIC.

[3] = test system: Escherichia coli ATCC25922 strain; experiment: as above
Experimental: as §1

[4] = test system: Klebsiella pneumoniae ATCC13883 strain; experiment: as above
Experimental: as §1

MIC [2]	MIC [3]	MIC [4]	SMILES	CC50 at 3 days [1]
1 µg/mL (≈ 2.21 µM)	0.5 µg/mL (≈ 1.1 µM)		CNC(=O)[C@@](C)(C(=O)NO)N(C)C(=O)c1ccc(C#Cc2ccc([C@H](O)[C@@H](C)O)cc2)cc1 [Example 34, (2S)-2-((4-((4-((1S,2R)-1,2-dihydroxypropyl)phenyl)ethynyl)benzoyl)(methyl)amino)-N-hydroxy-N′,2-dimethyl-malonamide]	≥ 100 µg/mL
1 µg/mL (≈ 1.99 µM)			CNC(=O)[C@@](C)(C(=O)NO)N(C)C(=O)c1ccc(C#Cc2ccc(C(O)COCCO)c(F)c2)cc1 (stereo partly drawn) [Example 27, (2S)-2-((4-((3-fluoro-4-(1-hydroxy-2-(2-hydroxyethoxy)ethyl)phenyl)ethynyl)benzoyl)(methyl)amino)-N-hydroxy-N′,2-dimethylmalonamide]	
	0.5 µg/mL (≈ 1 µM)		CNC(=O)[C@@](C)(C(=O)NO)N(C)C(=O)c1ccc(C#Cc2ccc([C@H](O)COCCCO)cc2)cc1 [Example 28, (2S)—N-hydroxy-2-((4-((4-((1S)-1-hydroxy-2-(3-hydroxypropoxy)ethyl)phenyl)ethynyl)benzoyl)(methyl)amino)-N′,2-dimethyl-malonamide]	≥ 100 µg/mL
	0.125 µg/mL (≈ 0.267 µM)	0.5 µg/mL (≈ 1.07 µM)	CCOC[C@@H](O)c1ccc(C#Cc2ccc(C(=O)N(C)[C@@](C)(C(=O)NC)C(=O)NO)cc2)cc1 [Example 29, (2S)-2-((4-((4-((1S)-2-ethoxy-1-hydroxyethyl)phenyl)ethynyl)benzoyl)(methyl)amino)-N-hydroxy-N′,2-dimethyl-malonamide]	≥ 100 µg/mL
	0.5 µg/mL (≈ 1.1 µM)	1 µg/mL (≈ 2.21 µM)	CNC(=O)[C@@](C)(C(=O)NO)N(C)C(=O)c1ccc(C#Cc2ccc([C@@H](O)COC)cc2)cc1 [Example 31, (2S)—N-hydroxy-2-((4-((4-((1R)-1-hydroxy-2-methoxyethyl)phenyl)ethynyl)benzoyl)(methyl)amino)-N′,2-dimethyl-malonamide]	≥ 100 µg/mL
1 µg/mL (≈ 2.19 µM)			CNC(=O)[C@@](C)(C(=O)NO)N(C)C(=O)c1ccc(C#Cc2ccc([C@@H](O)CO)c(F)c2)cc1 [Example 26, (2S)-2-((4-((4-(1,2-dihydroxyethyl)-3-fluorophenyl)ethynyl)benzoyl)(methyl)amino)-N-hydroxy-N′,2-dimethyl-malonamide]	
1 µg/mL (≈ 2.36 µM)	0.125 µg/mL (≈ 0.295 µM)	0.5 µg/mL (≈ 1.18 µM)	CNC(=O)[C@@](C)(C(=O)NO)N(C)C(=O)c1ccc(C#Cc2ccc([C@@H](C)O)cc2)cc1 [Example 37, (2S)—N-hydroxy-2-((4-((4-((1R)-1-hydroxyethyl)phenyl)ethynyl)benzoyl)(methyl)amino)-N′,2-dimethyl-malonamide]	
1 µg/mL (≈ 2.07 µM)			CNC(=O)[C@@](C)(C(=O)NO)N(C)C(=O)c1ccc(C#Cc2ccc(C(O)COCCO)cc2)cc1 (stereo partly drawn) [Example 22, (2S)—N-hydroxy-2-((4-((4-(1-hydroxy-2-(2-hydroxyethoxy)ethyl)phenyl)ethynyl)benzoyl)(methyl)amino)-N′,2-dimethyl-malonamide]	≥ 100 µg/mL
1 µg/mL (≈ 2.21 µM)	0.5 µg/mL (≈ 1.1 µM)		CNC(=O)[C@@](C)(C(=O)NO)N(C)C(=O)c1ccc(C#Cc2ccc([C@@H](O)CCO)cc2)cc1 [Example 32, (2S)-2-((4-((4-((1S)-1,3-dihydroxypropyl)phenyl)ethynyl)benzoyl)(methyl)amino)-N-hydroxy-N′,2-dimethyl-malonamide]	
	0.25 µg/mL (≈ 0.59 µM)		CNC(=O)[C@@](C)(C(=O)NO)N(C)C(=O)c1ccc(C#Cc2ccc([C@H](C)O)cc2)cc1 [Example 38, (2S)—N-hydroxy-2-((4-((4-((1S)-1-hydroxyethyl)phenyl)ethynyl)benzoyl)(methyl)amino)-N′,2-dimethyl-malonamide]	

Second part, the molecule before the results:

SMILES	MIC [2]	MIC [3]	MIC [4]	CC50 at 3 days [1]
CNC(=O)[C@@](C)(C(=O)NO)N(C)C(=O)c1ccc(C#Cc2ccc(COC(CO)CO)cc2)cc1 [Example 5, (2S)—N-hydroxy-2-((4-((4-((2-hydroxy-1-(hydroxymethyl)ethoxy)methyl)phenyl)ethynyl)benzoyl)(methyl)amino)-N′,2-dimethylmalonamide]				≥ 100 µg/mL
CNC(=O)[C@@](C)(C(=O)NO)N(C)C(=O)c1ccc(C#Cc2ccc(C(C)OCCO)cc2)cc1 (stereo partly drawn) [Example 21, (2S)—N-hydroxy-2-((4-((4-(1-(2-hydroxyethoxy)ethyl)phenyl)ethynyl)benzoyl)(methyl)amino)-N′,2-dimethyl-malonamide]		0.5 µg/mL (≈ 1.07 µM)		
CNC(=O)[C@@](C)(C(=O)NO)N(C)C(=O)c1ccc(C#Cc2ccc(COCC(O)CO)cc2)cc1 (stereo partly drawn) [Example 2, (2S)-2-((4-((4-((2,3-dihydroxypropoxy)methyl)phenyl)ethynyl)benzoyl)(methyl)amino)-N-hydroxy-N′,2-dimethylmalonamide]	1 µg/mL (≈ 2.07 µM)			≥ 100 µg/mL
CNC(=O)[C@@](C)(C(=O)NO)N(C)C(=O)c1ccc(C#Cc2ccc(C(CO)CO)cc2)cc1 [Example 6, (2S)—N-hydroxy-2-((4-((4-(2-hydroxy-1-(hydroxymethyl)ethyl)phenyl)ethynyl)benzoyl)(methyl)amino)-N′,2-dimethyl-malonamide]				≥ 100 µg/mL
CNC(=O)[C@@](C)(C(=O)NO)N(C)C(=O)c1ccc(C#Cc2ccc(COCCOC(C)=O)cc2)cc1 [Example 4, 2-((4-((4-((((1S)-2-(hydroxyamino)-1-methyl-1-((methylamino)carbonyl)-2-oxoethyl)(methyl)amino)carbonyl)phenyl)ethynyl)benzyl)oxy)ethyl acetate]		0.25 µg/mL	0.5 µg/mL	≥ 100 µg/mL
CNC(=O)[C@@](C)(C(=O)NO)N(C)C(=O)c1ccc(C#Cc2ccc(CC(O)CO)cc2)cc1 (stereo partly drawn) [Example 15, (2S)-2-((4-((4-(2,3-dihydroxypropyl)phenyl)ethynyl)benzoyl)(methyl)amino)-N-hydroxy-N′,2-dimethylmalonamide]	1 µg/mL (≈ 2.21 µM)			
CNC(=O)[C@@](C)(C(=O)NO)N(C)C(=O)c1ccc(C#Cc2ccc(CC(CO)CO)cc2)cc1 [Example 18, (2S)—N-hydroxy-2-((4-((4-(3-hydroxy-2-(hydroxymethyl)propyl)phenyl)ethynyl)benzoyl)(methyl)amino)-N′,2-dimethyl-malonamide]	1 µg/mL (≈ 2.14 µM)			
CNC(=O)[C@@](C)(C(=O)NO)N(C)C(=O)c1ccc(C#Cc2ccc(CO[C@@H](C)CO)cc2)cc1 [Example 8, (2S)—N-hydroxy-2-((4-((4-(((1S)-2-hydroxy-1-methylethoxy)methyl)phenyl)ethynyl)benzoyl)(methyl)amino)-N′,2-dimethylmalonamide]	1 µg/mL (≈ 2.14 µM)	0.25 µg/mL (≈ 0.535 µM)	1 µg/mL (≈ 2.14 µM)	≥ 100 µg/mL
CNC(=O)[C@@](C)(C(=O)NO)N(C)C(=O)c1ccc(C#Cc2ccc(/C=C/COC)cc2)cc1 [Example 12, (2S)—N-hydroxy-2-((4-((4-((1E)-3-methoxy-1-propen-1-yl)phenyl)ethynyl)benzoyl)(methyl)amino)-N′,2-dimethyl-malonamide]	1 µg/mL (≈ 2.22 µM)	0.0625 µg/mL (≈ 0.139 µM)	0.125 µg/mL (≈ 0.278 µM)	
CNC(=O)[C@@](C)(C(=O)NO)N(C)C(=O)c1ccc(C#Cc2ccc(C(CO)OC)cc2)cc1 (stereo partly drawn) [Example 9, (2S)—N-hydroxy-2-((4-((4-(2-hydroxy-1-methoxyethyl)phenyl)ethynyl)benzoyl)(methyl)amino)-N′,2-dimethyl-malonamide]		0.5 µg/mL (≈ 1.1 µM)		≥ 100 µg/mL
CNC(=O)[C@@](C)(C(=O)NO)N(C)C(=O)c1ccc(C#Cc2ccc(COC3COC3)cc2)cc1 [Example 11, (2S)—N-hydroxy-N′,2-dimethyl-2-(methyl(4-((4-((oxetan-3-yloxy)methyl)phenyl)ethynyl)benzoyl)amino)malonamide]		0.0625 µg/mL (≈ 0.134 µM)	0.5 µg/mL (≈ 1.07 µM)	
